Molecular target: T1, WT LRRK2 (Homo sapiens, UniProt Q5S007)
T1 construct: endogenous in cells; host or cells: HEK293 (endogenous LRRK2 gene knock-in tagged with HiBit; stably expressing CMV-driven firefly luciferase)
Test: LRRK2 HiBit degradation assay (Nano-Glo Dual Luciferase) in HEK293 cells with HiBit-tagged endogenous LRRK2
Format: cell-based
Conditions: for Dmax: maximal degradation
Text: Biological Assays Exemplary Assay for Testing LRRK2 Degradation Driven by Exemplary Hetero-Bifunctional Compounds Designed to Target LRRK2
The assay measures the degradation of LRRK2 in cells where the C-terminus (3′) of the endogenous gene has been tagged with a HiBit sequence in HEK293 cells. The cells also express firefly lucisferase, expressed from a Cytomegalovirus promoter and introduced into the HiBit tagged cells and stably expressed. The Nano-Glo® Dual Luciferase Reporter Assay System (Promega™, Madison, WI) was utilized.
Day 1—Preparation of Compound and Assay Plates. Two sets of plates were prepared: a triplicate set for the HiBit assay in white 384-well plates and a triplicate set of plate in black 384-well plates for the Alamar Blue cell viability assay. Briefly, the growth media (DMEM+Glutamax-10% fetal bovine serum-1% Penicillin-Streptomicin) from two T128 flasks was aspirated from the flasks. Cells were washed with Dulbecco's Phosphate Buffered Saline (dPBS) and aspirated. Trypsin (3 mL per flask) was added and the flasks were incubated for 2-3 minutes.
Ten mL of OptiMEM—10% fetal bovine-1% penicillin-streptomycin (hereinafter, “OptiMEM media”) was added to the flask and the cells and transferred to a 50 ml conical tube. A cell count (25 ul of cell into Effendorf vial+25 ul of Trypan Blue Stain) was performed and the cell density adjusted to 15,000 cell/45 μl/well (3.33×10^5/mL) in OptiMEM media.
Forty-five microliters of the cell suspension (15,000 cells) was aliquoted to each well of the white 384-well plate. The plates incubated at room temperature for 10 minutes before being placed in the 37° C.+5% CO2 incubator overnight
Day 2—Compound Treatment. Exemplary compounds were prepared at a 1 mM starting concentration and 1:3 serial dilution for 11 points CRC prepared and stored in the freezer. The Master Compound Plate was thawed overnight at room temperature. DMSO (20 μL) was added into column 24 of the Master Compound Plate for negative control and 20 μL of 300 μM of Compound 4 in column 23 as positive control.
Intermediate Compound Plate with 4% DMSO in OptiMEM Media. DMSO was added to warm OptiMEM media to achieve a 4% DMSO solution (approximately 50 mL/plate). One-hundred microliters of the OptiMEM-4% DMSO was aliquoted to each well of 384-Well Deep Well Microplates.
The Master Compound Plate and the Intermediate Compound Plate were spun down.
One microliter of compound from the Master Compound Plate was transferred into the Intermediate plate (a 1:100 dilution). The diluted mixture was mixed and 5 μL transferred into the assay plate (a 1:10 dilution) for the final starting concentration of 1 μM. The Treated Assay plates were incubated for 24 hours at 37° C.+5% CO2. The Master Compound Plate was sealed and store at room temperature for a second run that was performed within a week.
One set of white assay plates was warmed to room temperature (45 minute).
The One Glo luciferase mixture was prepared. The media from white 384-well assay plates was aspirated. Twenty-five μL of the One Glo luciferase mixture was added to each well of the assay plates. The plates were incubated on the bench (room temperature) for 45 minutes, including 10 minutes of shaking at 700 rpm. The luminescence of each plate was read on a plate reader.
1:100 DLR substrate and 1:100 LgBiT Protein dilution were added to the Promega Stop and Glo buffer and mixed just before addition to assay plates. Twenty-five microliters of Stop and Glo mixture was added to each well. Assay plates incubated for at least 45 minutes, including 10 minutes of shaking at 700 rpm. The luminescence of each plate was read on a plate reader.
Analysis of LRRK2 HiBit Screening assays. As mentioned above, plates were run in triplicate and the assay repeated twice (total of 6 replicate for exemplary compounds). For each treatment, measurements were taken for firefly luciferase for cell number, cell viability (Alamar Blue), and Nanoluc for the LRRK2-HiBit quantification. […]

[1] = Table 2, HiBit-tagged LRRK2 in HEK293 cells, 24 hours treatment, starting concentration 1 μM
[2] = HEK293, Table 2, HiBit-tagged LRRK2 in HEK293 cells, 24 hours treatment
[3] = HEK293, Table 3, comparison with direct comparators
[4] = Table 3, comparison with direct comparators, HiBit-tagged LRRK2 in HEK293 cells, 24 hours treatment

T1 sequence (Q5S007 whole entry): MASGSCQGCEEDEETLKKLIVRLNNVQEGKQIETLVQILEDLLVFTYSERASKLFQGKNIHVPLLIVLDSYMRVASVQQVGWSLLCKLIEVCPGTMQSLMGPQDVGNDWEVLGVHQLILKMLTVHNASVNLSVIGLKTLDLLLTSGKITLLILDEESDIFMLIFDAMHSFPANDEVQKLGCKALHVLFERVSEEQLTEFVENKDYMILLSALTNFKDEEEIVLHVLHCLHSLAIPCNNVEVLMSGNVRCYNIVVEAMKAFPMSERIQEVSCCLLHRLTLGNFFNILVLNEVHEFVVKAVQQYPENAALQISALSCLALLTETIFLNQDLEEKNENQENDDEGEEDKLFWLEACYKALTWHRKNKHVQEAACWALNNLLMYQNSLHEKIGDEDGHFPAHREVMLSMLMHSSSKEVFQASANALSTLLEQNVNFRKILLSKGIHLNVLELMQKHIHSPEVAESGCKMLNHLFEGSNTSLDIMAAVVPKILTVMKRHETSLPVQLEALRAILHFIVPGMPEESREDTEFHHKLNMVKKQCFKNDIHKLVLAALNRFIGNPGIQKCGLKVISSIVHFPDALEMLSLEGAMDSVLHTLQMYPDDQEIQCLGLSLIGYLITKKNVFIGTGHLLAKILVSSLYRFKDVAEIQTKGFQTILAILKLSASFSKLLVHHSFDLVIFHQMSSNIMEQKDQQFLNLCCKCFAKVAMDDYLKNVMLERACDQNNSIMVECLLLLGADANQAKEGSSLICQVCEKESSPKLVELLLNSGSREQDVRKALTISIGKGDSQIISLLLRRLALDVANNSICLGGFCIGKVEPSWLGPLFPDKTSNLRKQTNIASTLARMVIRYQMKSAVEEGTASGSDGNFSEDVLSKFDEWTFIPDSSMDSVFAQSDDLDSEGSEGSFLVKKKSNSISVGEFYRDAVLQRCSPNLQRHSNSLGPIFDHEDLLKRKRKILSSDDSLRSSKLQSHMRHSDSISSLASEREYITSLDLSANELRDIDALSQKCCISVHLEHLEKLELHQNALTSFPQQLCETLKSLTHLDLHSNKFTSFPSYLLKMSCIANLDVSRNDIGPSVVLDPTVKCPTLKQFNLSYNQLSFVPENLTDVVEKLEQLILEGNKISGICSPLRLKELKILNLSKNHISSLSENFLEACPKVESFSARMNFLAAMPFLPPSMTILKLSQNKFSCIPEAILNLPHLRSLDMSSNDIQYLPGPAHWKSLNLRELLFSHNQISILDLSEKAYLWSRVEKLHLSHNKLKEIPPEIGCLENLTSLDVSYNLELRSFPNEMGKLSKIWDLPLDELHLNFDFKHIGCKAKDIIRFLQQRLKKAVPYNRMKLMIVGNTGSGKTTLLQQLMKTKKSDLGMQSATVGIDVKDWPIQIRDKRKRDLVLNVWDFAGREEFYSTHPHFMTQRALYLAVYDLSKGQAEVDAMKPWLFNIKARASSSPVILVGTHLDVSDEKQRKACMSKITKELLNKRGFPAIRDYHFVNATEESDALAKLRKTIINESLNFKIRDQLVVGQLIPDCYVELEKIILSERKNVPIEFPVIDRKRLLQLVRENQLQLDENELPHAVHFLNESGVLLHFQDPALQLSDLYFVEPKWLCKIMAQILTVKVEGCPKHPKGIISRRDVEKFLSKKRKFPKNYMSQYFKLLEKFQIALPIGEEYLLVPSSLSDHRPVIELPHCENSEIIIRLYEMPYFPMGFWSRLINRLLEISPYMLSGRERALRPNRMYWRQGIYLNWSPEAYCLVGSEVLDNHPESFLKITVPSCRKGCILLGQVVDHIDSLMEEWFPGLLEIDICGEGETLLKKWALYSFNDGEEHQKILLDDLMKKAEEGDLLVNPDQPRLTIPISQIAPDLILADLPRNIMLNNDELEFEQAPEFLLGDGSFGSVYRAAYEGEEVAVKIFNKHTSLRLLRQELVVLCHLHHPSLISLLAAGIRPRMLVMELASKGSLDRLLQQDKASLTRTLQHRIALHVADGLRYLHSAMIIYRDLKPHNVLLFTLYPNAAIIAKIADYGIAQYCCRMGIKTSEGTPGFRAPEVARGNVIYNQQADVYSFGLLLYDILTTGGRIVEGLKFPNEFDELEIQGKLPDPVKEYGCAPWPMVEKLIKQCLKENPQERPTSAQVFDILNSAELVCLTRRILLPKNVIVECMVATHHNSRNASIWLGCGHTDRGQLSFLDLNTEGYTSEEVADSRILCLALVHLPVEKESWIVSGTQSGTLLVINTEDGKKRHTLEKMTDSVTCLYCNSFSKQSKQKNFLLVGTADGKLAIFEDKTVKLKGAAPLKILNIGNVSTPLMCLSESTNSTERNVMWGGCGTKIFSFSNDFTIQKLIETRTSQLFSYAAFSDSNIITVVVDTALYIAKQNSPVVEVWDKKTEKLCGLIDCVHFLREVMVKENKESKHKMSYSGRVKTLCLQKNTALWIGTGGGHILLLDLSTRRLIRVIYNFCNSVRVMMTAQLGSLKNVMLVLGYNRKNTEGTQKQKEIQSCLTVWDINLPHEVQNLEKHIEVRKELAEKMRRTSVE

| Structure (SMILES) | DC50 [1] | Dmax [2] | Dmax [3] | DC50 [4] | Dmax (Table 2, HiBit-tagged LRRK2 in HEK293 cells, 24 hours treatment) |
| --- | --- | --- | --- | --- | --- |
| CC(C)n1c(=O)n(C2CCC(=O)NC2=O)c2ccc(N3CCC(O[C@H]4CC[C@H](CN5CCN(c6cc(-c7n[nH]c8cnc(OC9(C)CC9)cc78)ncn6)CC5)CC4)CC3)cc21 (single isomer, unassigned) [Compound 52, rel-3-[2-oxo-3-(propan-2-yl)-5-(4-{[(1r,4r)-4-[(4-{6-[5-(1-methylcyclopropoxy)-1H-pyrazolo[3,4-c]pyridin-3-yl]pyrimidin-4-yl}piperazin-1-yl)methyl]cyclohexyl]oxy}piperidin-1-yl)-2,3-dihydro-1H-1,3-benzodiazol-1-yl]piperidine-2,6-dione] | 0.28 nM | 53% |  |  |  |
| Cn1c(=O)n(C2CCC(=O)NC2=O)c2cccc(N3CCC(CN4CCN(CC5CCN(c6cc(-c7n[nH]c8ccc(OC9(C)CC9)cc78)ncn6)CC5)CC4)CC3)c21 (stereo not drawn) [Compound 15, 3-{3-methyl-4-[4-({4-[(1-{6-[5-(1-methylcyclopropoxy)-1H-indazol-3-yl]pyrimidin-4-yl}piperidin-4-yl)methyl]piperazin-1-yl}methyl)piperidin-1-yl]-2-oxo-2,3-dihydro-1H-1,3-benzodiazol-1-yl}piperidine-2,6-dione] | 1.5 nM | 59% | 59% | 1.5 nM |  |
| Cn1c(=O)n(C2CCC(=O)NC2=O)c2ccc(N3CCC(OC[C@H]4C[C@H](OC5CCN(c6cc(-c7n[nH]c8cnc(OC9(C)CC9)cc78)ncn6)CC5)C4)CC3)cc21 (single isomer, unassigned) [Compound 32, rel-3-[3-methyl-2-oxo-5-(4-{[(1r,3r)-3-[(1-{6-[5-(1-methylcyclopropoxy)-1H-pyrazolo[3,4-c]pyridin-3-yl]pyrimidin-4-yl}piperidin-4-yl)oxy]cyclobutyl]methoxy}piperidin-1-yl)-2,3-dihydro-1H-1,3-benzodiazol-1-yl]piperidine-2,6-dione] | 0.33 nM |  |  |  | 51% |
| CC(C)n1c(=O)n(C2CCC(=O)NC2=O)c2ccc(N3CCC(O[C@H]4CC[C@H](CN5CCN(c6cc(-c7n[nH]c8cnc(OC(C)(C)C)cc78)ncn6)CC5)CC4)CC3)cc21 (single isomer, unassigned) [Compound 58, rel-3-[2-oxo-3-(propan-2-yl)-5-(4-{[(1r,4r)-4-[(4-{6-[5-(tert-butoxy)-1H-pyrazolo[3,4-c]pyridin-3-yl]pyrimidin-4-yl}piperazin-1-yl)methyl]cyclohexyl]oxy}piperidin-1-yl)-2,3-dihydro-1H-1,3-benzodiazol-1-yl]piperidine-2,6-dione] | 33 nM | 70% |  |  |  |

Continued, in another order:

| DC50 [1] | Dmax [2] | Dmax [3] | DC50 [4] | Structure (SMILES) | Dmax (Table 2, HiBit-tagged LRRK2 in HEK293 cells, 24 hours treatment) |
| --- | --- | --- | --- | --- | --- |
| ≥ 1000 nM |  |  |  | Cn1c(=O)n(C2CCC(=O)NC2=O)c2cc(N3CCC(CN4CCN(CC5CCN(c6cc(-c7n[nH]c8ccc(OC9(C)CC9)cc78)ncn6)CC5)CC4)CC3)ccc21 (stereo not drawn) [Compound 16, 3-{3-methyl-6-[4-({4-[(1-{6-[5-(1-methylcyclopropoxy)-1H-indazol-3-yl]pyrimidin-4-yl}piperidin-4-yl)methyl]piperazin-1-yl}methyl)piperidin-1-yl]-2-oxo-2,3-dihydro-1H-1,3-benzodiazol-1-yl}piperidine-2,6-dione] |  |
| 0.22 nM | 58% | 58% | 0.22 nM | Cn1c(=O)n(C2CCC(=O)NC2=O)c2ccc(N3CCC(CN4CCN(CC5CCN(c6cc(-c7n[nH]c8ccc(OC9(C)CC9)cc78)ncn6)CC5)C(C)(C)C4)CC3)cc21 (stereo not drawn) [Compound 14, 3-{5-[4-({3,3-dimethyl-4-[(1-{6-[5-(1-methylcyclopropoxy)-1H-indazol-3-yl]pyrimidin-4-yl}piperidin-4-yl)methyl]piperazin-1-yl}methyl)piperidin-1-yl]-3-methyl-2-oxo-2,3-dihydro-1H-1,3-benzodiazol-1-yl}piperidine-2,6-dione] |  |

— patent publication US12589156B2, “Benzimidazole and benzimidazolone based protac compounds for the targeted degradation of leucine rich repeat kinase 2 (LRRK2)” (Arvinas Operations, Inc., priority 2023, dated 2026)
